Reference: US20250257060A1, “OXADIAZOLE COMPOUND, PHARMACEUTICAL COMPOSITION COMPRISING SAME, AND USE THEREOF” (SUZHOU GENHOUSE BIO CO., LTD., priority 2022, published 2025)

What was measured:
[1] = test system: acetylation level of α-tubulin in HCC827 cells; test: Assay on acetylation level of α-tubulin, HCC827 cells; assay type: cell-based; details: Homo sapiens, 6 h
Procedure: A375/HCT116/HCC827 cells at a logarithmic growth phase were taken, digested with a […] (trypsin), centrifuged, counted, and plated in a 96-well plate at an appropriate cell density (30,000 cells/well) at 100 µL/well, and an appropriate amount of PBS was added around the plate for water sealing. The next day, the cells were treated with the compounds at different concentrations (starting at 100 μM, 5-fold dilution, 9 concentration gradients). After 6 h, the medium was pipetted out and the cells were washed twice with 100 μL of PBST. The cells were then immobilized in 4% paraformaldehyde, and the plate was incubated at room temperature for 20 min. The stationary liquid was discarded and the cells were washed with PBST. 150 μL of special blocking buffer (containing 1% Triton-100) was added to each well for blocking at room temperature for 2 h, and the plate was washed with PBS to remove excess blocking buffer. α-tubulin (DM1A) mouse mAb and acetyl-α-tubulin (Lys40) (D20G3) XP rabbit mAb were diluted at a 1:2000 ratio with a blocking buffer containing 0.033% Triton-100. The dilutions were added to the 96-well plate and the plate was incubated overnight at 4° C. Meanwhile, a blank control group was set. The next day, the plate was washed twice with PBST. […] Fluorescence signals at 700 nm and 800 nm were detected with a Li-COR Odyssey two-color near-infrared laser imager.

[2] = Phase I metabolic stability in monkey liver microsomes (CLMs); assay type: in vitro ADME, cynomolgus monkeys; design: microsomal CLint: dose or concentration left out as unconfirmed; details: CLM; for Remaining rate (NCF = 60 min): buffer instead of NADPH regeneration system; for Remaining rate (T = 60 min): with NADPH; for CLint scaled at 1 µM / half-life at 1 M / microsomal CLint: cynomolgus monkey, liver microsomes, pH 7.4; for microsomal CLint: read-out: CLint (mic)
Procedure: (§1) Phase I metabolic stability of the test compounds in liver microsomes of CD-1 mice (MLMs), Sprague-Dawley rats (RLMs), beagle dogs (DLMs), cynomolgus monkeys (CLMs), and humans (HLMs) was evaluated.
(§2) The animal and human liver microsomes used in the test system were purchased from Xenotech, Corning, or other qualified suppliers and stored in a freezer at a temperature below −60° C. prior to use.
(§3) The test samples and control compounds were separately incubated with animal and human liver microsomes at 37±1° C. for a period of incubation time up to 60 min. The samples were removed at the indicated time points, and the reaction was stopped with acetonitrile or other organic solvents containing an internal standard. After centrifugation, the resulting supernatants were assayed by liquid chromatography-tandem mass spectrometry (LC-MS/MS).
(§4) 73.21 g of dipotassium hydrogenphosphate trihydrate and 10.78 g of potassium dihydrogenphosphate were dissolved in 4000 mL of ultrapure water. The solution was adjusted to pH 7.40±0.10 with 10% phosphoric acid or 1 M potassium hydroxide to make a final concentration of 100 mM.
(§5) The test sample powder was prepared into a stock solution at a certain concentration with DMSO or other organic solvents, which was then further diluted with a proper organic solvent.
(§6) Microsomes of each species were diluted into a 2× working solution with a 100 mM potassium phosphate buffer. The final concentration of the microsomes in the reaction system was 0.5 mg/mL.
(§7) An appropriate amount of nicotinamide adenine dinucleotide phosphate (NADP) and isocitric acid (ISO) powder was weighed out, dissolved in a magnesium chloride solution, and shaken and mixed well. An appropriate amount of isocitrate dehydrogenase (IDH) was added, and the mixture was mixed well by gently turning upside down. The final concentrations in the reaction system were: 1 mM NADP, 1 mM magnesium chloride, 6 mM ISO, and 1 unit/mL IDH.
(§8) Incubation was performed in a 96-well plate. Eight incubation plates were prepared and designated T0, T5, T15, T30, T45, T60, Blank60, and NCF60, respectively. The first 6 plates corresponded to reaction time points of 0, 5, 15, 30, 45, and 60 min, respectively. No test sample or control compound was added to the Blank60 plate, and samples were taken after 60 min of incubation. In the NCF60 plate, incubation was performed for 60 min using the potassium phosphate buffer instead of the NADPH regeneration system solution. Three replicates were made for samples in all conditions.
(§9) The microsomes and the test sample or control compound were mixed, and then the incubation plates Blank60, T5, T15, T30, T45, and T60 except for TO and NCF60 were placed in a 37° C. water bath for pre-incubation for about 10 min. In the incubation plate TO, a stop solution was first added, followed by addition of the NADPH regeneration system working solution, and 98 μL of the potassium phosphate buffer was added to each sample well of the incubation plate NCF60 to initiate the reaction. After the pre-incubations of the incubation plates Blank60, T5, T15, T30, T45, and T60 were completed, 98 μL of the NADPH regeneration system working solution was added to each sample well to initiate the reaction. The reaction temperature was 37±1° C., the final volume of the reaction was 200 μL, and the reaction system included 0.5 mg/mL microsomes, […], 1 mM NADP, 6 mM ISO, and 1 unit/mL IDH.
(§10) At 5 min, 15 min, 30 min, 45 min, and 60 min, a cold stop solution containing an internal standard was added to the reaction plate to stop the reaction.
(§11) All the reaction plates after the reaction was stopped were shaken well and centrifuged at 3220×g at 4° C. for 20 min. After the supernatant was diluted according to a certain proportion, LC-MS/MS analysis was performed.
(§12) Sample analysis was performed by the liquid chromatography-tandem mass spectrometry (LC-MS/MS) method without standard curves and quality control samples. […]

[3] = Phase I metabolic stability in dog liver microsomes (DLMs); assay type: in vitro ADME, beagle dogs; design: half-life: dose or concentration left out as unconfirmed; details: DLM; for Remaining rate (NCF = 60 min): buffer instead of NADPH regeneration system; for Remaining rate (T = 60 min): with NADPH; for CLint scaled at 1 µM / half-life / microsomal CLint at 1 M: beagle, dog, liver microsomes, pH 7.4; for microsomal CLint at 1 M: read-out: CLint (mic)
Procedure: as §1, §2, §3, §4, §5, §6, §7, §8, §9, §10, §11, §12

[4] = target: HDAC6 (Homo sapiens (Human), UniProt Q9UBN7); test: HDAC6 enzymatic activity assay; assay type: biochemical
HDAC6, sequence (Q9UBN7 whole entry): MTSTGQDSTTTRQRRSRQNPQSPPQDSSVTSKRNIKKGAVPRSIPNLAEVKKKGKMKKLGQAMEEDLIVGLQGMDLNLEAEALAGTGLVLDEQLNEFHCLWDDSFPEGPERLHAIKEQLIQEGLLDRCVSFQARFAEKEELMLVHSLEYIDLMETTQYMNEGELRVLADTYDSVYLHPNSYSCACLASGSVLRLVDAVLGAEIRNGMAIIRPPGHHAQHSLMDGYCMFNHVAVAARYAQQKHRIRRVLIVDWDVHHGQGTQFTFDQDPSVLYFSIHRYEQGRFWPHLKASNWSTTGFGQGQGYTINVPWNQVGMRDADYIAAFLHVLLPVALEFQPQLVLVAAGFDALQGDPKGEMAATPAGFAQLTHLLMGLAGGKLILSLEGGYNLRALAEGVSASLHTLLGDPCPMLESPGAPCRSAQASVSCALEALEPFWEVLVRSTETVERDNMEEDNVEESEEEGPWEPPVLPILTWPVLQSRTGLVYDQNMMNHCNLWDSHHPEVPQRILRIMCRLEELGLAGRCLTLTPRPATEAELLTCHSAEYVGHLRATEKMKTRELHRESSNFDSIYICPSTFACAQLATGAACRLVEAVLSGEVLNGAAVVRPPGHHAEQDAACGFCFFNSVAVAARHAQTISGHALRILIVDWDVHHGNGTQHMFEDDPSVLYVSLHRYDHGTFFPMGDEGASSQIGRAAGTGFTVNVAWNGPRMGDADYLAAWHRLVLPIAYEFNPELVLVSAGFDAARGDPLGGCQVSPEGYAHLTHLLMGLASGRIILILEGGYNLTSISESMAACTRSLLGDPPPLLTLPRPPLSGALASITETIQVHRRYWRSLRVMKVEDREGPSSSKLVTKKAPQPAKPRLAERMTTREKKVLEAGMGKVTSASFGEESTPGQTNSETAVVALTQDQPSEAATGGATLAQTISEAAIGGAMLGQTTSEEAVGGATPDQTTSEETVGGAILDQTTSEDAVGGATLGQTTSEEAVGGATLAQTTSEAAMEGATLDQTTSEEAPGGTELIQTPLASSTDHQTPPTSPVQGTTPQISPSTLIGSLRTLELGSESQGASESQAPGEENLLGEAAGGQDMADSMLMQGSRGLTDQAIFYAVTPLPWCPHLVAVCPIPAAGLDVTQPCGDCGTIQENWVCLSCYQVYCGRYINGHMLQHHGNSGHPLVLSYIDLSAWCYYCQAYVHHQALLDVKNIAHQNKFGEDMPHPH
Method in brief: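 Recombinant HDAC6 with compound and Ac-GAK(Ac)-AMC substrate ([…]), 37° C. for 30 min, then developed with trypsin plus TSA for 15 min at room temperature. IC50 from curve fitting.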

Structure (SMILES)	EC50 [1] [nM]	Remaining rate (NCF = 60 min) [2] [%]	Remaining rate (T = 60 min) [2] [%]	CLint scaled at 1 µM [2] [mL/min/kg]	half-life at 1 M [2] [h]	microsomal CLint [2] [µL/min/mg]	Remaining rate (NCF = 60 min) [3] [%]	Remaining rate (T = 60 min) [3] [%]	CLint scaled at 1 µM [3] [mL/min/kg]	half-life [3] [h]	microsomal CLint at 1 M [3] [µL/min/mg]	IC50 [4] [nM]
O=C(N[C@@H]1CCCC[C@H]1N1Cc2ccc(-c3nnc(C(F)F)o3)cc2S1(=O)=O)C(F)F [Compound 2]	288 ± 49.3	101.5	88.8	< 13	> 2.42	< 9.6	90.9	85.8	< 13.8	> 2.42	< 9.6	–
O=C(N[C@H]1[C@H](N2Cc3ccc(-c4nnc(C(F)F)o4)cc3S2(=O)=O)CCCC1(F)F)C(F)F [Compound 61]	–	–	–	–	–	–	–	–	–	–	–	63
CC(F)(F)C(=O)N[C@@H]1CCCC[C@H]1N1Cc2ccc(-c3nnc(C(F)F)o3)cc2S1(=O)=O [Compound 1]	338	94.8	79.1	< 13	> 2.42	< 9.6	98.9	86.6	< 13.8	> 2.42	< 9.6	59
